Measurements reported in ChEMBL document CHEMBL2375350, “Synthesis of indolyl-3-acetonitrile derivatives and their inhibitory effects on nitric oxide and PGE2 productions in LPS-induced RAW 264.7 cells” (Bioorg Med Chem Lett, 2013).

How the values were obtained:
RAW264.7 [1] = assay: Antiinflammatory activity in mouse RAW264.7 cells assessed as inhibition of LPS-induced PGE2 production incubated for 1 hr prior to LPS challenge measured after 24 hrs by EIA; assay type: functional, cell-based
RAW264.7 [2] = assay: Antiinflammatory activity in mouse RAW264.7 cells assessed as inhibition of LPS-induced nitrite production after 24 hrs by Griess assay; assay type: functional, cell-based; conditions: RAW264.7, 24 h
RAW264.7 [3] = assay: Cytotoxicity against mouse RAW264.7 cells assessed as cell viability after 24 hrs by MTT assay; assay type: cell-based; conditions: RAW264.7, 24 h

SMILES | IC50 (RAW264.7 [1]) | IC50 (RAW264.7 [2]) | IC50 (RAW264.7 [3])
COC(=O)n1cc(CC#N)c2ccc(O)cc21 | 15.2 µM | > 100 µM | 339 µM
COC(=O)Cn1cc(CC#N)c2ccc(O)cc21 | > 100 µM | > 100 µM | > 400 µM
Cn1cc(CC#N)c2cccc(O)c21 | 6.22 µM | 39.8 µM | > 400 µM
CC(=O)n1cc(CC#N)c2ccc(O)cc21 | 41.3 µM | 82.1 µM | > 400 µM
Cn1cc(CC#N)c2ccc(O)cc21 | 11.7 µM | 80.1 µM | 372 µM
Cn1cc(CC#N)c2cc(O)ccc21 | 57.7 µM | > 100 µM | 325 µM

Second part, led by results:

IC50 (RAW264.7 [1]) | IC50 (RAW264.7 [2]) | SMILES | IC50 (RAW264.7 [3])
> 25 µM | 19.4 µM | N#CCc1c[nH]c2ccc(OCc3ccccc3)cc12 | 82.7 µM
83.6 µM | > 100 µM | COc1ccc2c(CC#N)c[nH]c2c1 | 161 µM
16 µM | 57.1 µM | Cn1cc(CC#N)c2c(O)cccc21 | > 400 µM
73.1 µM | 48.7 µM | N#CCc1c[nH]c2c(OCc3ccccc3)cccc12 | > 400 µM
32.4 µM | 45.6 µM | N#CCc1c[nH]c2cccc(OCc3ccccc3)c12 | 105 µM
> 25 µM | 20.4 µM | N#CCc1c[nH]c2cc(OCc3ccccc3)ccc12 | 53.2 µM
> 100 µM | > 100 µM | COc1cccc2c(CC#N)c[nH]c12 | > 400 µM
> 100 µM | > 100 µM | COc1ccc2[nH]cc(CC#N)c2c1 | 99.6 µM
13.9 µM | 83.6 µM | COc1cccc2[nH]cc(CC#N)c12 [ARVELEXIN] | 207 µM
